Data as given in ChEMBL document CHEMBL3751755, “Developing steroidal aromatase inhibitors-an effective armament to win the battle against breast cancer” (Eur J Med Chem, 2015).

What was measured:
Aromatase [1] = molecular target: T1, Aromatase (Homo sapiens, UniProt P11511); experiment: Competitive inhibition of human aromatase extracted from placental microsomes after 10 mins by Lineweaver- Burk plots analysis in presence of [1beta-3H]androstenedione
T1 sequence (P11511 whole entry): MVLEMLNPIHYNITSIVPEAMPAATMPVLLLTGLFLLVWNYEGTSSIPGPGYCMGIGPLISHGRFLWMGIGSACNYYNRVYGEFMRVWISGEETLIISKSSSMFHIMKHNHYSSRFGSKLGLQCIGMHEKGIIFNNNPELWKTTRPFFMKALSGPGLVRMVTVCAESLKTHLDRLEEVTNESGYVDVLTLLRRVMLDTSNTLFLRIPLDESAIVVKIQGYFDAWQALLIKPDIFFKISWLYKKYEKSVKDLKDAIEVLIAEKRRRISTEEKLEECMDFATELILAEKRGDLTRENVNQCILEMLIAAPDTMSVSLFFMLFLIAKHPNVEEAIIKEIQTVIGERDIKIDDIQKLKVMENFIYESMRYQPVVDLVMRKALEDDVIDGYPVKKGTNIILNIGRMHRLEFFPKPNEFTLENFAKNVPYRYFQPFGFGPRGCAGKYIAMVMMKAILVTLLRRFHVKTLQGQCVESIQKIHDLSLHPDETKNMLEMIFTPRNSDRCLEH

Aromatase [2] = molecular target: T1, Aromatase; experiment: Time dependent inactivation of human aromatase extracted from placental microsomes using [1-3H]androstenedione as substrate
Aromatase [3] = molecular target: T1, Aromatase; experiment: Inhibition of human aromatase extracted from placental microsomes using 4-[14C]androstenedione/androstenedione as substrate assessed as estrogen formation after 30 mins in NADPH-generating system; conditions: 0.5 h
Aromatase [4] = molecular target: T2, Aromatase (Rattus norvegicus, UniProt P22443); experiment: Inhibition of rat aromatase extracted from PMSG-primed ovarian fraction using 4-[14C]androstenedione/androstenedione as substrate assessed as estrogen formation after 30 mins in NADPH-generating system; conditions: 0.5 h
T2 sequence (P22443 whole entry): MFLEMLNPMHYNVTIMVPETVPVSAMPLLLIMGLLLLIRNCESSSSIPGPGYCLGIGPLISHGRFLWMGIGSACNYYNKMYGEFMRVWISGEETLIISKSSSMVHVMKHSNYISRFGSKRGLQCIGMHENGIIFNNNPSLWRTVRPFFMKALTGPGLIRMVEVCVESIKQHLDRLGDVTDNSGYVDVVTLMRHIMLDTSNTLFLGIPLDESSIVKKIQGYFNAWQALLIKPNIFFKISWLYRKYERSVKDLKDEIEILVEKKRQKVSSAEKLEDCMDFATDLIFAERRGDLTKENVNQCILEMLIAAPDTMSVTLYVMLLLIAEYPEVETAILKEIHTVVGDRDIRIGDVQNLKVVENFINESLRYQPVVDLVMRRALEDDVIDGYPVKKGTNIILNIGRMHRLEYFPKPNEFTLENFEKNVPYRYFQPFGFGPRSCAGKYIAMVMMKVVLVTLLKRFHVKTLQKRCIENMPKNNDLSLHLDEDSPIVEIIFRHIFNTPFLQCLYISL

Aromatase [5] = molecular target: T1, Aromatase; experiment: Inhibition of human aromatase extracted from placental microsomes using [1-3H]androstenedione as substrate
Aromatase [6] = molecular target: T1, Aromatase
Aromatase [7] = molecular target: T1, Aromatase; experiment: Inhibition of human aromatase extracted from placental microsomes using [1-3H]androstenedione as substrate at […]
Aromatase [8] = molecular target: T1, Aromatase; experiment: Inhibition of human aromatase extracted from placental microsomes using [1beta,2beta-3H]testosterone as substrate measured at 7 to 21 mins by scintillation counting analysis
Aromatase [9] = molecular target: T1, Aromatase; experiment: Inhibition of human aromatase extracted from placental microsomes using [1beta,2beta-3H]androstenedione as substrate
Aromatase [10] = molecular target: T1, Aromatase; experiment: Inhibition of aromatase (unknown origin) at 50 uM
Aromatase [11] = molecular target: T1, Aromatase; experiment: Inhibition of human aromatase extracted from placental microsomes
Aromatase [12] = molecular target: T1, Aromatase; experiment: Inhibition of human aromatase extracted from placental microsomes using [1beta-3H]androstenedione as substrate after 20 mins
Aromatase [13] = molecular target: T1, Aromatase; experiment: Inhibition of human aromatase extracted from placental microsomes at 520 nM after 10 mins
Aromatase [14] = molecular target: T1, Aromatase; experiment: Inhibition of human aromatase extracted from placental microsomes using [1beta,2beta-3H]androstenedione as substrate after 10 mins
Aromatase [15] = molecular target: T1, Aromatase; experiment: Competitive inhibition of human aromatase extracted from placental microsomes by double reciprocal plot analysis in presence of 4-androstene-3,17-dione; conditions: read-out: Ki(app)
Aromatase [16] = molecular target: T1, Aromatase; remark: listed apart in the source
Aromatase [17] = molecular target: T1, Aromatase; experiment: Inhibition of human aromatase extracted from placental microsomes using [1beta-3H]androstenedione as substrate at 10 to 500 nM after 30 mins; conditions: 0.5 h
Aromatase [18] = molecular target: T1, Aromatase; experiment: Inhibition of human aromatase extracted from placental microsomes using [1beta-3H]androstenedione as substrate after 30 mins

C[C@]12C=CC(=O)C(Sc3ccccc3)=C1C=C[C@@H]1[C@@H]2CC[C@]2(C)C(=O)CC[C@@H]12
Ki (Aromatase [1]): 9.8 nM

C[C@]12CC[C@H]3[C@@H](CCC4=CC(=O)[C@H]5C[C@H](O)[C@]43C5)[C@@H]1CCC2=O
Ki (Aromatase [2]): 926 nM

C[C@]12CCC(=O)C(O)=C1C=C[C@@H]1[C@@H]2CC[C@]2(C)C(=O)CC[C@@H]12
inhibition (INH) (Aromatase [3]): 30%
inhibition (INH) (Aromatase [4]): 30%

C=C1C=C2CC[C@@H]3[C@H](CC[C@]4(C)C(=O)CC[C@@H]34)[C@@]2(CO)CC1
inhibition (INH) (Aromatase [5]): 80%

C[C@]12C=CC(=O)C=C1C=C(c1ccccc1)[C@@H]1[C@@H]2CC[C@]2(C)C(=O)CC[C@@H]12
Ki (Aromatase [6]): 2220 nM

C=C1C=C2CC[C@@H]3[C@H](CC[C@]4(C)C(=O)CC[C@@H]34)[C@@]2(C=O)CC1
inhibition (INH) (Aromatase [5]): 50%

C[C@]12CCC(=O)C=C1C[C@@H](Sc1ccc(Cl)cc1)[C@@H]1[C@@H]2CC[C@]2(C)C(=O)CC[C@@H]12
inhibition at […] (Aromatase [7]): 45%

CC(=O)O[C@H]1CC[C@@]2(C)C(=C/C(=N\OCCCn3ccnc3)[C@H]3[C@@H]4CC[C@H](OC(C)=O)[C@@]4(C)CC[C@@H]32)C1
IC50 (Aromatase [8]): 12000 nM

CSCC[C@]12CCC(=O)C=C1CC[C@@H]1C2=CC[C@]2(C)C(=O)CC[C@@H]12
IC50 (Aromatase [9]): 12 nM

C[C@]12CC[C@H]3[C@@H](CCC4=CC(=O)[C@H]5COC[C@]43C5)[C@@H]1CCC2=O
Ki (Aromatase [2]): 17.6 nM

C[C@]12CCC(=O)C=C1C(=O)C[C@@H]1[C@@H]2CC[C@]2(C)/C(=C/c3ccccn3)CC[C@@H]12
inhibition at 50 µM (Aromatase [10]): 108%

C[C@]12C=CC(=O)C(O)=C1CC[C@@H]1[C@@H]2CC[C@]2(C)C(=O)CC[C@@H]12
inhibition (INH) (Aromatase [3]): 30%
inhibition (INH) (Aromatase [4]): 30%

C[C@]12CCC(=O)C(Sc3ccccc3)=C1C=C[C@@H]1[C@@H]2CC[C@]2(C)C(=O)CC[C@@H]12
Ki (Aromatase [1]): 9.8 nM

C[C@]12CC[C@H]3[C@@H](Cc4nn(Cc5ccccc5)c5c4[C@]3(C)CCC5=O)[C@@H]1CC[C@@H]2O
IC50 (Aromatase [11]): 245 nM

C[C@]12CC[C@H]3O[C@H]3[C@@H]1CC[C@@H]1[C@@H]2CC[C@]2(C)C(=O)CC[C@@H]12
IC50 (Aromatase [12]): 180 nM

C[C@]12C=CC(=O)C=C1C=C(CCc1ccccc1)[C@@H]1[C@@H]2CC[C@]2(C)C(=O)CC[C@@H]12
Ki (Aromatase [6]): 172 nM

C[C@]12CC[C@H]3[C@@H](CCC4=CC(=O)[C@H]5C[C@@H](O)[C@]43C5)[C@@H]1CCC2=O
Ki (Aromatase [2]): 870 nM

C[C@]12CCC(=O)C=C1[C@@H](Br)C[C@@H]1[C@@H]2CC[C@]2(C)C(=O)CC[C@@H]12
inhibition at […] (Aromatase [13]): 45%

C[C@]12CCC(=O)C(SCF)=C1CC[C@@H]1[C@@H]2CC[C@]2(C)C(=O)CC[C@@H]12
IC50 (Aromatase [14]): 800 nM

C[C@]12C=CC(=O)C=C1C[C@@H](Sc1cccc3ccccc13)[C@@H]1[C@@H]2CC[C@]2(C)C(=O)CC[C@@H]12
Ki (Aromatase [15]): 12 nM

C[C@]12CC[C@H]3[C@@H](CCC4=C(F)C(=O)CC[C@@H]43)[C@@H]1CCC2=O
Ki (Aromatase [16]): 90 nM

C[C@]12CCC(=O)C=C1C[C@@H](Sc1ccc(Br)cc1)[C@@H]1[C@@H]2CC[C@]2(C)C(=O)CC[C@@H]12
inhibition at […] (Aromatase [7]): 45%

C[C@]12CCC(=O)c3onc(c31)C[C@@H]1[C@@H]2CC[C@]2(C)C(=O)CC[C@@H]12
inhibition (INH) (Aromatase [17]): 50%
IC50 (Aromatase [18]): 1890 nM
